What all share (assay): inhibition of tumour cell growth, NCI panel, 48 h
Assay [1] has as its system HCT-116 colon.
Assay [2] concerns HS 578T breast.
Assay [3] relates to K-562 leukemia.
The subject of assay [4] is MDA-N.
In assay [5] the test system is NCI/ADR-RES ovarian.
Assay [6] concerns OVCAR-5 ovarian.
Assay [7] relates to PC-3 prostate.
The test system of assay [8] is SF-268 CNS.
The subject of assay [9] is SK-OV-3 ovarian.
The test system of assay [10] is A498 renal.

Where “and” joins values, the source holds several entries; their conditions need not be identical. Identical values can stand only once.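 Exposure lasted 48 hours, with cells grown in 96-well plates and compounds tested at five concentrations. GI50 is the concentration that inhibits growth by half. TGI: total growth inhibition.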

For the compound `CCOP(=O)(OCC)C(C)(C)OC(=O)NC#N`, the TGI in assay [1], in assay [2], in [3], in assay [4], in assay [5] and in assay [6] was greater than 100 µM each time. In addition, the TGI in [7], in assay [8] and in [9] was greater than 100 µM in each case.
Consider `O=P1(c2ccccc2)C2=CCC=CC2C(c2ccccc2)N1Cc1ccccc1` (stereo unspecified), for which the TGI in [1] is 32.2 µM; in [2] it was 43.9 µM; in assay [3] it was 35.5 µM; in assay [4], 38.2 µM; in assay [5], 32.2 µM; in [6], greater than 100 µM. Moreover, the TGI was found to be 27.6 µM in assay [7], 30.9 µM in assay [8] and 31 µM in assay [9].
Regarding `C=CC1(c2ccc(OC)cc2)OCCCO1`, the TGI in [1], in assay [2], in assay [3], in assay [4], in assay [5] and in assay [6] was greater than 100 µM each time. The TGI in assay [7], in assay [8] and in assay [9] was greater than 100 µM throughout.
In the case of `O=C(Oc1cccc(Cl)c1)c1cc2cc(CCl)ccc2oc1=O`, the TGI in [1], in assay [2], in assay [3], in [4], in assay [5] and in assay [6] was greater than 100 µM in each case. The TGI in assay [7], in assay [8] and in assay [9] was greater than 100 µM in each case.
For the compound `CN1B(c2ccccc2)N(C)C(=O)N(C)C1=O`, the TGI in [1], in assay [2], in assay [3], in [4], in assay [5] and in assay [6] was greater than 100 µM throughout. Besides, the TGI in assay [7], in assay [8] and in assay [9] was greater than 100 µM throughout.
As for `N#C/C(=C\c1ccccc1Br)C(=O)c1ccccc1`, the TGI was greater than 100 µM in assay [10]; greater than 66.8 µM in [1]; greater than 42.6 µM in assay [3]; 99.1 µM in [6]; greater than 85.4 µM in [8]; greater than 100 µM in assay [9].
For `C#CCCCC(=O)N(C(=O)CS(=O)CC)c1ccccc1` (stereo unspecified), the TGI in [1], in [2], in assay [3], in [4], in [5] and in assay [6] was greater than 100 µM each time. Besides, the TGI in [7], in assay [8] and in assay [9] was greater than 100 µM throughout.
With `CCN(CC)CCNc1ccc2ncn3c4cc(=O)ccc4c(O)c1c23`, the TGI in assay [10] is 14 µM; in [1] it was 15.5 µM; in [3], 30 µM; in assay [6], 32.5 µM; in assay [8], 12.1 µM; in assay [9] it was 41.9 µM.
As for `CC1(C)C2CCC(N)(C2)C1O` (stereo unspecified), the TGI in [10], in assay [1], in assay [3], in assay [4], in assay [5] and in [6] was greater than 100 µM throughout. The TGI in [7] and in assay [9] was greater than 100 µM each time.
As to `CC1(C)CC2C(C1=O)C1(C)CCCC2(C)C1=O` (stereo unspecified), the TGI in assay [1], in [2], in assay [3], in assay [4], in [5] and in assay [6] was greater than 100 µM each time. Moreover, the TGI in [7], in assay [8] and in [9] was greater than 100 µM in each case.
On to `CCCCCCCCCCSCC(CO)NC(=O)/C=C/c1c(C)[nH]c(=O)[nH]c1=O` (stereo unspecified), for which the GI50 was 1.98 µM and 4.94 µM in [10]; 0.895 µM in assay [8]; 1.82 µM and 7.04 µM in assay [9]. Further, the TGI in [10] was greater than 50 µM; in [1], greater than 50 µM; in [3], greater than 50 µM; in [5], greater than 50 µM; in assay [6], greater than 50 µM; in [8] it was 10.2 µM and > 21.4 µM. This compound also came in with a TGI in assay [9] greater than 50 µM.
As to `O=S(=O)(/N=C(\NO)Nc1ccc(Cl)cc1)c1ccc(-c2ccccn2)s1`, the TGI is greater than 100 µM in [1]; greater than 100 µM in [2]; greater than 100 µM in [3]; 94.5 µM in assay [4]; greater than 100 µM in assay [5]; greater than 100 µM in assay [6]. Also, the TGI in assay [7], in assay [8] and in assay [9] was greater than 100 µM each time.
In the case of `C=CCC(SC)C1=C(C)C(=O)c2ccccc21` (stereo unspecified), the TGI in assay [10], in assay [3], in assay [4], in [6], in assay [7] and in assay [8] was greater than 10 µM throughout. Besides, in assay [9], the TGI was greater than 10 µM.
In the case of `O=C1C[C@H](c2ccc(O)c(O)c2)Oc2cc(O)cc(O)c21`, the TGI in assay [10], in assay [1], in [3], in assay [6], in assay [8] and in assay [9] was greater than 100 µM in each case.
Take `CN1C(=O)N(C)C2(CCN(CCCCCCF)CC2)C1=O`: the TGI in [1], in assay [3], in assay [4], in assay [5], in assay [6] and in assay [7] was greater than 100 µM each time. Also, the TGI in assay [8] and in assay [9] was greater than 100 µM each time.
On to `COc1cc2c(cc1OCCCCCOc1cc3c(cc1OC)C(=O)N1CCC[C@H]1CN3)N=C[C@@H]1CCCN1C2=O`, for which the TGI in [1] was 24.1 µM; in assay [2] it was 50.4 µM; in assay [3], 17.6 µM; in [5], greater than 100 µM; in [6], 69.4 µM; in assay [7], 61.5 µM. Besides, the figures for the TGI in assay [8] and in assay [9] were 61.8 µM and greater than 100 µM, respectively.
